Broadly, the IC50 is the concentration needed to halve the response being measured.

One test deals with T1, human ROCKα/ROCKII mix (Homo sapiens, UniProt O75116).
T1 construct: purchased Upstate Biotechnology 14-451
Put plainly: Biochemical assay for ROCK (fluorescence polarization, ROCK IMAP Kit). The method, then:
The compounds were tested for inhibition of human ROCKα/ROCKII mix.
The inhibition assays were performed with a fluorescence polarization (FP) assay using the commercially available ROCK IMAP Kit from Molecular Devices (Product ID. No. R8093), essentially in accordance with the protocol supplied by the manufacturer. […] The enzyme mix ROCKα/ROCKII was obtained from Upstate Biotechnology (Product ID No 14-451).
In summary, the compound was screened in the wells of a 384 well plate for enzymatic inhibition with concentrations varying from 100 μM to 0.3 nM using a stepwise 3 (or 2)-fold dilution.
To perform the assay, 1 μl of a solution of the compound to be tested in DMSO (at each concentration) was added to 2 μl of a solution of the enzyme in 10 mM Tris-HCl , 10 mM MgCl2, 0.1% BSA, 0.05% NaN3, pH 7.2. The final concentration of the enzyme was 2.6 nM.
After incubating for 30 minutes at room temperature, 2 μl of a mixture of ATP and the protein substrate in 10 mM Tris-HCl, 10 mM MgCl2, 0.1% BSA, 0.05% NaN3, pH 7.2 was added. The final concentration of the ATP was 10 μM and final concentration of protein substrate was 0.2 μM.
After incubating for 60 minutes at room temperature, 12 μl of the IMAP Binding Solution (mix of the IMAP Binding Buffer A (1×) and the IMAP Binding Reagent (from the ROCK IMAP kit)) was added.
The mixture thus obtained (total volume: 17 μl) was incubated for 60 minutes at room temperature, upon which the fluorescence polarization was measured using an automated plate reader (Perkin Elmer, Model Envision 2100-0010 HTS) with FP filters: excitation filter FITC FP 480 and emission filters FITC FP P-pol 535 and FITC FP S-pol 535 (Perkin-Elmer). The results were fitted to a curve using the XL-Fit algorithm and IC50 values were calculated for each fitted curve, again using the XL-Fit algorithm.

The next test addresses T2, PKC epsilon (Homo sapiens, UniProt Q02156).
T2 construct: purchased Invitrogen P2282
T2 sequence (Q02156 1-737): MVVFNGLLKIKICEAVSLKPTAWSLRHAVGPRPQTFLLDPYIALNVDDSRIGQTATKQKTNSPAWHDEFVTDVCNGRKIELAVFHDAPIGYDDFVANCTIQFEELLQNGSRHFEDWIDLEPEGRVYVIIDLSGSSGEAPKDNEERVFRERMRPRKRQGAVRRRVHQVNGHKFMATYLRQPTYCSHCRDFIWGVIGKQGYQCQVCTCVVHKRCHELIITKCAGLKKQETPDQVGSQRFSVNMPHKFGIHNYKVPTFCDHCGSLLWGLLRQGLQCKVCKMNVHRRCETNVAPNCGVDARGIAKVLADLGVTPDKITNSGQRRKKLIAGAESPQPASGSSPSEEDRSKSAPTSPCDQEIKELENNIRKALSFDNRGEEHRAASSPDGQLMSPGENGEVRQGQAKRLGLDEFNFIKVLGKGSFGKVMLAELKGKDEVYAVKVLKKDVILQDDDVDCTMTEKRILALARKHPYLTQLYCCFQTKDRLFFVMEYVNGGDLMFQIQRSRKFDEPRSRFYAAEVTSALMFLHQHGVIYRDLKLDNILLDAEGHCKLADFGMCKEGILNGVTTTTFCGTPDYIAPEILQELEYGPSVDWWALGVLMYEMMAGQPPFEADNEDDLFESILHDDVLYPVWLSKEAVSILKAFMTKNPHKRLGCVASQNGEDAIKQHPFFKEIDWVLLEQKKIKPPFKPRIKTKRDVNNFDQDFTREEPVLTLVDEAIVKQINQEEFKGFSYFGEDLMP
As to the kind of experiment: Biochemical assay for PKC epsilon (fluorescence polarization, Protein Kinase C Assay Kit, Red). The method, then: The compounds were tested for inhibition of PKC epsilon.
The inhibition assays were performed with a fluorescence polarization (FP) assay using the commercially available Protein Kinase C Assay Kit, Red, from Invitrogen (Product ID. No. P2941), essentially in accordance with the protocol supplied by the manufacturer. […] The isozyme PKC epsilon was also obtained from Invitrogen (Product ID No. P2282).
Staurosporine was used as a positive control (2 μM).
To perform the assay, 2 μl of a solution of the compound to be tested in DMSO (at each concentration) was added to 6 μl of a solution of the enzyme in 10 mM HEPES, 5 mM dithiotreitol, 0.1% Triton X-100, pH 7.4. The final concentration of the enzymes was 10 ng/ml.
After incubating for 30 minutes at room temperature, 4 μl of a mixture of ATP and the protein substrate in 60 mM HEPES (pH7.4), 15 mM MgCl2, 0.3 mM CaCl2, 0.06% NP40 was added.
After incubating for 80 minutes at room temperature, 3 μl of a mix solution of 500 mM EDTA (stop solution) and the Rhodamine-based PKC Red Tracer (from the Protein Kinase C Assay Kit) in BGG/phosphate buffer (pH7.4) with 0.02% NaN3 and 0.1% Triton X-100 was added and 5 μl of a the Anti-Phosphoserine antibody (also from the Protein Kinase C Assay Kit) in BGG/phosphate buffer (pH7.4) with 0.02% NaN3.
The results were fitted to a curve using the XL-Fit algorithm and […] were calculated for each fitted curve, again using the XL-Fit algorithm.
In general terms: In fluorescence polarisation assays a small probe gives low polarisation when free and higher when bound to something large.

Setting [1] is: Table 2, compounds of Formula XIII.
The mark [2] stands for this setting: Table 2, compounds of Formula XIII, read-out: IC50 μM PKCε.
The mark [3] stands for this setting: compounds of Formula XIV, Table 3.
Where [4] appears, read: compounds of Formula XIV, Table 3, read-out: IC50 μM PKCε.

Like-named read-outs stand apart in the source and are kept apart here.

T1 sequence (O75116 11-552 limits assumed): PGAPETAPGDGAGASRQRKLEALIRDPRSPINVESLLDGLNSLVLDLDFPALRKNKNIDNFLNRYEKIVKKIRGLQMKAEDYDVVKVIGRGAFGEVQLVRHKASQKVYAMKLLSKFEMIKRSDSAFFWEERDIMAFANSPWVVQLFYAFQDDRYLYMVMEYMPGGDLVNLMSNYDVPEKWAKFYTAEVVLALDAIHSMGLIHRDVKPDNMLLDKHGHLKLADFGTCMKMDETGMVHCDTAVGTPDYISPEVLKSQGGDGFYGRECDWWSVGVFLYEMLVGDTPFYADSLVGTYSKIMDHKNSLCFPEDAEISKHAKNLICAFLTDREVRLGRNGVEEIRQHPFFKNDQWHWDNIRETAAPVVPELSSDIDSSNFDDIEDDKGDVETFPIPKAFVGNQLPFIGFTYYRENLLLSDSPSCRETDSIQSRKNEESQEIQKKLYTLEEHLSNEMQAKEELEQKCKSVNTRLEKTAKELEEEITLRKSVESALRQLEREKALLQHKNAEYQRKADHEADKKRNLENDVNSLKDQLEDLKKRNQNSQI

Consider `CC(=NOCC(=O)NCC(N)c1ccc(C(=O)Nc2ccncc2)cc1)c1ccccc1` (stereo not drawn) [Compound 60, 4-{1-Amino-2-[2-(1-phenyl-ethylideneaminooxy)-acetylamino]-ethyl}-N-pyridin-4-yl-benzamide], for which the IC50 is 0.05 to 0.5 µM against human ROCKα/ROCKII mix (setting [1]) and 0.5 to 5 µM on PKC epsilon (setting [2]).

For the molecule `NC(CNC(=O)c1ccc2[nH]ccc2c1)c1ccc(C(=O)Nc2ccncc2)cc1` (stereo not drawn) [Compound 132, 1H-Indole-5-carboxylic acid {2-amino-2-[4-(pyridin-4-ylcarbamoyl)-phenyl]-ethyl}-amide], the values for the IC50 at human ROCKα/ROCKII mix (setting [1]) and at PKC epsilon (setting [2]) were 0.05 to 0.5 µM and 0.5 to 5 µM, respectively.

For the molecule “4-{1-Amino-2- [(benzo[1,3]dioxol-5- ylmethyl)-carbamoyl]-ethyl}- N-pyridin-4-yl-benzamide [Compound 245]”, the half-maximal inhibitory concentration (IC50) is 0.05 to 0.5 µM against human ROCKα/ROCKII mix (setting [3]) and 0.5 to 5 µM at PKC epsilon (setting [4]).

Take `NC(c1ccc(C(=O)Nc2ccncc2)cc1)C1CCCN1C(=O)C(c1ccccc1)C1CCCCC1` (stereo not drawn) [Compound 555, 4-{Amino-[1-(2-cyclohexyl-2-phenyl-acetyl)-pyrrolidin-2-yl]-methyl}-N-pyridin-4-yl-benzamide]: the 50% inhibitory concentration (IC50) at human ROCKα/ROCKII mix and on PKC epsilon (read-out: IC50 μM PKCε) was 0.5 to 5 µM in each case.

In the case of “Indan-1-carboxylic acid {2- amino-2-[4-(pyridin-4- ylcarbamoyl)-phenyl]-ethyl}- methyl-amide [Compound 507]”, the IC50 against human ROCKα/ROCKII mix was in the range of 0.5 to 5 µM; on PKC epsilon (read-out: IC50 μM PKCε), 5 to 50 µM.

`NC(CC(=O)NCCc1c[nH]c2ccccc12)c1ccc(C(=O)Nc2ccncc2)cc1` (stereo not drawn) [Compound 313, 4-{1-Amino-2-[2-(1H-indol-3-yl)-ethylcarbamoyl]-ethyl}-N-pyridin-4-yl-benzamide]: the IC50 was 0.05 to 0.5 µM at human ROCKα/ROCKII mix (setting [3]) and 0.5 to 5 µM at PKC epsilon (setting [4]).

On to `NC(c1ccc(C(=O)Nc2ccncc2)cc1)C1CCCN1C(=O)C1(c2ccc(F)cc2)CC1` (stereo not drawn) [Compound 574, 4-(Amino-{1-[1-(4-fluoro-phenyl)-cyclopropanecarbonyl]-pyrrolidin-2-yl}-methyl)-N-pyridin-4-yl-benzamide], for which the half-maximal inhibitory concentration (IC50) on human ROCKα/ROCKII mix and at PKC epsilon (read-out: IC50 μM PKCε) was 0.5 to 5 µM each time.

For `NC(c1ccc(C(=O)Nc2ccncc2)cc1)C1CCCN1C(=O)C1(c2ccc(F)c(Cl)c2)CC1` (stereo not drawn) [Compound 607, 4-(Amino-{1-[1-(3-chloro-4-fluoro-phenyl)-cyclopropanecarbonyl]-pyrrolidin-2-yl}-methyl)-N-pyridin-4-yl-benzamide], the IC50 on human ROCKα/ROCKII mix and on PKC epsilon (read-out: IC50 μM PKCε) was 0.5 to 5 µM in each case.

For `COc1cccc(NC(=O)NCC(N)c2ccc(C(=O)Nc3ccncc3)cc2)c1` (stereo not drawn) [Compound 29, 4-{1-amino-2-[3-(3-methoxy-phenyl)-ureido]-ethyl}-N-pyridin-4-yl-benzamide], the IC50 lay in the range of 0.05 to 0.5 µM at human ROCKα/ROCKII mix and 0.5 to 5 µM at PKC epsilon (read-out: IC50 μM PKCε).

Take `COc1ccc(NC(=O)CC(N)c2ccc(C(=O)Nc3ccncc3)cc2)cc1` (stereo not drawn) [Compound 319, 4-[1-Amino-2-(4-methoxy-phenyl-carbamoyl)-ethyl]-N-pyridin-4-yl-benzamide]: the IC50 at human ROCKα/ROCKII mix (setting [3]) is 0.05 to 0.5 µM; on PKC epsilon (setting [4]), 0.5 to 5 µM.

For `NC(CNC(=O)Cc1c(F)cccc1F)c1ccc(C(=O)Nc2ccncc2)cc1` (stereo not drawn) [Compound 149, 4-{1-Amino-2-[2-(2,6-difluororo-phenyl)-acetylamino]-ethyl}-N-pyridin-4-yl-benzamide], the IC50 against human ROCKα/ROCKII mix (setting [1]) is 0.5 to 5 µM; on PKC epsilon (IC50 μM PKCε, Table 2, compounds of Formula XIII) it was 0.5 to 5 µM.

With `CC(C)CCC(=O)NCC(N)c1ccc(C(=O)Nc2ccncc2)cc1` (stereo not drawn) [Compound 36, 4-[1-Amino-2-(4-methyl-pentanoylamino)-ethyl]-N-pyridin-4-yl-benzamide], the IC50 against human ROCKα/ROCKII mix (setting [1]) and on PKC epsilon (setting [2]) was 0.5 to 5 µM in each case.

Regarding `NC(CC(=O)NC1CCCc2ccccc21)c1ccc(C(=O)Nc2ccncc2)cc1` (stereo not drawn) [Compound 223, 4-[1-Amino-2-(1,2,3,4-tetrahydro-naphtalen-1-ylcarbamoyl)-ethyl]-N-pyridin-4-yl-benzamide], the IC50 on human ROCKα/ROCKII mix (setting [3]) and at PKC epsilon (setting [4]) was 0.05 to 0.5 µM in each case.

Regarding `NC(c1ccc(C(=O)Nc2ccncc2)cc1)C1CCCN1C(=O)C1CCc2ccccc21` (stereo not drawn) [Compound 608, 4-{Amino-[1-(indane-1-carbonyl)-pyrrolidin-2-yl]-methyl}-N-pyridin-4-yl-benzamide], the IC50 against human ROCKα/ROCKII mix and at PKC epsilon (read-out: IC50 μM PKCε) was 0.5 to 5 µM in each case.

Take `COc1ccc(CCNC(=O)CC(N)c2ccc(C(=O)Nc3ccncc3)cc2)cc1OC` (stereo not drawn) [Compound 293, 4-{1-Amino-2-[2-(3,4-dimethoxy-phenyl)-ethylcarbamoyl]-ethyl}-N-pyridin-4-yl-benzamide]: the IC50 is 0.5 to 5 µM against human ROCKα/ROCKII mix (setting [3]) and 5 to 50 µM on PKC epsilon (setting [4]).

`NC(CC(=O)NCC1CCCO1)c1ccc(C(=O)Nc2ccncc2)cc1` (stereo not drawn) [Compound 184, 4-{1-amino-2-[(tetrahydro-furan-2-ylmethyl)-carbamoyl]-ethyl}-N-pyridin-4-yl-benzamide]: the half-maximal inhibitory concentration (IC50) fell in the range of 0.05 to 0.5 µM against human ROCKα/ROCKII mix (setting [3]) and 0.5 to 5 µM on PKC epsilon (setting [4]).

Regarding “4-{1-Amino-2-[(2- cyclopentyl-2-phenyl- acetyl)-methyl- amino]-ethyl}- N-pyridin-4-yl-benzamide [Compound 455]”, the IC50 on human ROCKα/ROCKII mix and at PKC epsilon (read-out: IC50 μM PKCε) was 5 to 50 µM throughout.

As for `NC(CC(=O)NCc1ccc(F)cc1)c1ccc(C(=O)Nc2ccncc2)cc1` (stereo not drawn) [Compound 258, 4-[1-Amino-2-(4-fluoro-benzylcarbamoyl)-ethyl]-N-pyridin-4-yl-benzamide], the IC50 at human ROCKα/ROCKII mix (setting [3]) and on PKC epsilon (setting [4]) was 0.05 to 0.5 µM throughout.

As to `NC(CNC(=O)c1cccc(Br)c1)c1ccc(C(=O)Nc2ccncc2)cc1` (stereo not drawn) [Compound 91, 4-[1-amino-2-(3-bromo-benzoylamino)-ethyl]-N-pyridin-4-yl-benzamide], the IC50 against human ROCKα/ROCKII mix (setting [1]) and at PKC epsilon (setting [2]) was 0.5 to 5 µM in each case.

Regarding `COc1ccc(C2(C(=O)N3CCCC3C(N)c3ccc(C(=O)Nc4ccncc4)cc3)CC2)cc1` (stereo not drawn) [Compound 529, 4-(Amino-{1-[1-(4-methoxy-phenyl)-cyclopropanecarbonyl]-pyrrolidin-2-yl}-methyl)-N-pyridin-4-yl-benzamide], the IC50 against human ROCKα/ROCKII mix and at PKC epsilon (read-out: IC50 μM PKCε) was 0.5 to 5 µM each time.

`Cc1ccc(CNC(=O)NCC(N)c2ccc(C(=O)Nc3ccncc3)cc2)cc1` (stereo not drawn) [Compound 8, 4-{1-amino-2-[3-(4-methyl-benzyl)-ureido]-ethyl}-N-pyridin-4-yl-benzamide]: the IC50 against human ROCKα/ROCKII mix fell in the range of 0.05 to 0.5 µM; on PKC epsilon (read-out: IC50 μM PKCε), 0.5 to 5 µM.
